From patent publication US20220002288A1, “MONOBACTAM COMPOUNDS AND USE THEREFOR” (priority 2018, published 2022) come the findings set out here.

For orientation: MIC means the smallest concentration in the dilution series that meets the test's criterion for growth inhibition. The term AUC(0-inf) denotes total exposure, with the tail of the curve extrapolated. As usually defined, the AUC(0-t) is the area under the concentration-time curve up to a stated or last time point. Lower therefore signals low exposure. As usually defined, the clearance is the rate of elimination divided by the concentration. In general, half-life refers to the time in which the quantity being followed falls by half. Higher therefore signals slow decline.

The test system of data set [1] is Acinetobacter baumannii, Pseudomonas aeruginosa, and Escherichia coli. In words: In vitro antibacterial activity, summary statements over all strains of Experimental Example 1. It counts as cell-based. The note with it: method of Experimental Example 1. On the procedure:
(§1) Compounds: The compounds prepared in the above examples and comparative examples. All test compounds were dissolved and diluted with DMSO, and the final concentrations were prepared as 64, 32, 16, 8, 4, 2, 1, 0.5, 0.25, 0.125, 0.0625 μg/mL in the experiment.
(§2) Bacterial strains: 6 strains of Acinetobacter baumannii (codenames: HDBAB-YK4, HDBAB-YK7, HDBAB-YK12, HDBAB-YK16, HDBAB_OXA_7, ATCC 19606), 2 strains of Pseudomonas aeruginosa (codenames: HDBPA-YK9, HDBPA)-YK15), 1 strain of Escherichia coli (codename: CLB30048), all provided by HD Biosciences (Shanghai) Co., Ltd.
The minimum inhibitory concentration (MIC) of each compound was recorded according to the guidelines of the Clinical and Laboratory Standards Institute.

The subject of another data set is Escherichia coli. In words: In vitro antibacterial activity, minimum inhibitory concentration (MIC). It counts as cell-based. On the procedure:
as §1, §2
(§3) Medium: Trypticase soy agar (TSA) (BD BBL 211043), and Cation-adjusted Mueller Hinton broth (CAMHB) (BD BBL212322).
(§4) The bacteria used for the minimum inhibitory concentration (MIC) test were stored frozen at −80° C., and needed 2 days to recover before use. A small amount of frozen bacteria was scraped with a sterile inoculation loop for streak inoculation on a TSA solid medium petri dish. The dish was placed in an ordinary incubator at 35±2° C. for 20-24 hours. 5-10 Colonies with similar morphologies were picked from the above-mentioned petri dish with a sterile inoculating loop for streak inoculation again on a TSA solid medium petri dish. The dish was then placed in an ordinary incubator at 35±2° C. for 20-24 hours.
(§5) 1.02×CAMHB liquid medium was taken out from a 4° C. refrigerator and placed at room temperature for preheating. 5-10 Individual bacterial colonies were picked from the solid petri dish of the above Section 2.1 and re-suspended in 500 μL of 0.9% NaCl, and then the OD600 was adjusted to 0.1-0.15 with a spectrophotometer. Then the bacteria were diluted 400 times with 1.02×CAMHB (two-step dilution method: firstly diluting 10 times, then diluting 40 times).
(§6) The number of inoculated bacteria can be obtained by counting the colonies on the petri dish (see Section 2.4).
(§7) One compound was arranged in each row of a 96-well test plate: the highest test concentration for each compound was 64 μg/mL, which was diluted by a factor of two.
(§8) Growth control (GC): 1.02×CAMHB and dimethyl sulfoxide (DMSO) containing bacterial inoculum, no compound.
(§9) Sterile control (SC): Containing 1.02×CAMHB and DMSO, no compound.
(§10) All test compounds were dissolved and diluted with DMSO. 50 μL of 3.2 mg/mL of each test compound was transferred to the initial well (A1-H1) of the dilution plate, and then 25 μL of DMSO was transferred to other wells. The test compounds were sequentially diluted by a factor of 2 from column 1 to column 11 (i.e. drawing 25 μL of test compound from column 1 to column 2 and mixing well, and then drawing 25 μL of test compound from column 2 to column 3 and mixing well, and then drawing 25 μL of test compound from column 3 to column 4 and mixing well, and so on, until diluting to column 11).
(§11) 2 μL of the compound was transferred from the compound plate to the corresponding well of the test plate. Meanwhile, 2 μL of 100% DMSO was transferred to the compound-free wells (the GC and SC wells).
(§12) 98 μL of the corresponding bacterial inoculum was added to the test plate (except for the SC well).
(§13) 98 μL of 1.02×CAMHB medium was added to the SC well of the test plate.
(§14) After the system was added, the test plate was covered with a sterile lid, centrifuged at 800 rpm for 30 seconds, then shaken on a plate shaker at 400 rpm for 1 minute for mixing well, and then placed in an incubator at 35±2° C. for 20 hours.
(§15) The inoculated bacteria were gradient diluted by 10 folds with the liquid medium, from 10^−1 to 10^−3. 100 μL of the above bacterial dilution was spread evenly on a TSA petri dish, 2 replicates for each dilution. After the medium was absorbed by TSA for 10 minutes, the petri dishes were reversed and incubated in an incubator at 35±2° C. for 24 hours.
(§16) A compound management system was turned on to check whether the barcode and compound arrangement of each test plate were correct. […]

A further data set deals with Pseudomonas aeruginosa. The data set is described as above. It counts as cell-based. The protocol: as §1, §2, §3, §4, §5, §6, §7, §8, §9, §10, §11, §12, §13, §14, §15, §16
In the next data set the test system is Acinetobacter baumannii. The data set is described as above. It counts as cell-based. On the procedure: as §1, §2, §3, §4, §5, §6, §7, §8, §9, §10, §11, §12, §13, §14, §15, §16
The nature of data set [2]: Pharmacokinetics of the compounds in mice. It counts as in vivo, BALB/c mice. Particulars: mouse, plasma, male BALB/c mice, single intravenous dose 2 mg/kg, plasma; for Vd: male, BALB/c, iv, 2 mg/kg. The text has this:
Animals: male BALB/c mice, SPF grade, purchased from Changzhou Cavens Experimental Animal Co., Ltd.; 16-24 g, license number: SCXK (Su)2016-0010; 2 to 3 days of adaptation period were given before the experiment.
Instruments: API 4500 High Performance Liquid Chromatograph Coupled Triple Quadrupole Mass Spectrometer, and Analyst QS A01.01 Chromatography Workstation were both purchased from AB SCIEX of the United States; Milli-Q ultrapure water device was purchased from Millipore; CF16R XII desktop high-speed refrigerated centrifuge was purchased From Hitachi Company; Qilinbeier Vortex-5 oscillator was purchased from IKA Company of German; electric heating constant-temperature water bath was purchased from Changzhou Guohua Electric Appliance Co., Ltd.; electric pipette was purchased from Thermo Company of American; and microanalysis balance was purchased from Shanghai Mettler Co., Ltd.
2 mg of the test compound was weighed, added to physiological saline, vortexed for 2 min, and ultrasonicated for 3 min, to prepare a test solution with a concentration of 0.2 mg/mL for intravenous administration.
A single dose of 2 mg/kg of the test compound was administered to BALB/c mice via the tail vein, the dose volume being 0.1 mL/10 g. At 5 min, 15 min, 30 min, 1 h, 2 h, 4 h after administration, blood samples were collected from the orbital venous plexus into heparinized EP tubes (0.6 mL), which were temporarily placed on crushed ice.
The samples were centrifuged at 8000 rpm for 5 min. 15 μL of upper plasma were transferred to a 96-well plate. 150 μL of methanol:acetonitrile (v/v=1:1) (containing 20 ng/mL tolbutamide) was added to 15 μL of plasma, shaken for 3 min, and centrifuged at 4500 rpm for 5 min. 100 μL of supernatant was taken to a 2 mL deep well plate. 100 μL of diluent (pure water) was added. The samples were shaken for 3 min, and centrifuged at 4500 rpm for 5 min. 180 μL of the supernatant was transferred to the sample plate. The content of the compound in the supernatant sample was analyzed by LC-MS/MS, and various pharmacokinetic parameters were calculated with WinNonlin software.

≈ marks a conversion by molar mass, not a printed value. Where a name gives a salt, the structure may show the parent alone. Read-outs that look alike come from different tables or passages of the source. Some results are limits rather than exact numbers.

For `CC(CN)Nc1ccc(-c2ccc(OC[C@H](O/N=C(\C(=O)N[C@@H]3C(=O)N(OS(=O)(=O)[O-])C3(C)C)c3csc(N)n3)C(=O)O)cc2)c[n+]1C` (stereo partly shown) [Compound A, reference compound], the “in vitro antibacterial activity (in words)” value in data set [1] is listed as “significantly weaker”. The MIC with Escherichia coli (strain CLB30048, read-out: MIC) amounted to 8 µg/mL (≈ 11.3 µM); against Pseudomonas aeruginosa (strain HDBPA-YK9), 16 µg/mL (≈ 22.6 µM); in the data set with Pseudomonas aeruginosa (strain HDBPA-YK15), 64 µg/mL (≈ 90.6 µM); in the data set with Acinetobacter baumannii (strain HDBAB-YK4), 16 µg/mL (≈ 22.6 µM); with Acinetobacter baumannii (strain HDBAB-YK7) it was 8 µg/mL (≈ 11.3 µM); in the data set with Acinetobacter baumannii (strain HDBAB-YK12), 4 µg/mL (≈ 5.66 µM). Further, the MIC against Acinetobacter baumannii (strain HDBAB-YK16) and with Acinetobacter baumannii (strain HDBAB_OXA_7) was 16 µg/mL (≈ 22.6 µM) throughout. For the same compound, in data set [2] (read-out: VSS), the Vd was 0.4 L/kg. This compound yielded an AUC(0-inf) in data set [2] of 2800 ng·h/mL. This compound showed an AUC(0-t) in data set [2] of 2140 ng·h/mL. The C0 in data set [2] amounted to 5920 ng/mL. The compound also had a clearance in data set [2] of 265 mL/min/kg. In data set [2], this compound gave a half-life of 18 min.
As for `CC1[C@@H](NC(=O)/C(=N\OC2(C(=O)O)CC2)c2csc(N)n2)[C@@H](CN2CCOC2=O)N1S(=O)(=O)O` (stereo partly shown) [Compound B, reference compound], the “in vitro antibacterial activity (in words)” value in data set [1] was “significantly weaker”. The minimal inhibitory concentration (MIC) was above 64 µg/mL in the data set with Escherichia coli (strain CLB30048, read-out: MIC); above 64 µg/mL against Pseudomonas aeruginosa (strain HDBPA-YK9); above 64 µg/mL against Pseudomonas aeruginosa (strain HDBPA-YK15); above 64 µg/mL in the data set with Acinetobacter baumannii (strain HDBAB-YK4); above 64 µg/mL in the data set on Acinetobacter baumannii (strain HDBAB-YK7); above 64 µg/mL in the data set on Acinetobacter baumannii (strain HDBAB-YK12). In addition, the MIC with Acinetobacter baumannii (strain HDBAB-YK16) and in the data set on Acinetobacter baumannii (strain HDBAB_OXA_7) was above 64 µg/mL throughout.
With `CC1(C)[C@H](NC(=O)/C(=N\O[C@@H](COc2ccc(NC(=O)c3cn(CCCN)[n+](CC4CNC4)c3)cc2)C(=O)O)c2csc(N)n2)C(=O)N1OS(=O)(=O)[O-]` [Example 2, (S)-3-((Z)-2-(((S)-2-(4-(1-(3-aminopropyl)-2-(azetidin-3-ylmethyl)-1H-pyrazol-2-ium-4-carboxamido)phenoxy)-1-carboxyethoxy)imino)-2-(2-aminothiazol-4-yl)acetylamido)-2,2-dimethyl-4-oxoazetidin-1-yl Sulfate], the “in vitro antibacterial activity (in words)” value in data set [1] is recorded as “excellent antibacterial activity”. Also, the MIC in the data set with Escherichia coli is 1 µg/mL; against Pseudomonas aeruginosa (strain HDBPA-YK9), 4 µg/mL; in the data set on Pseudomonas aeruginosa (strain HDBPA-YK15), above 64 µg/mL; with Acinetobacter baumannii (ATCC19606, strain ATCC 19606), 2 µg/mL; in the data set on Acinetobacter baumannii (strain HDBAB-YK4), 2 µg/mL; in the data set with Acinetobacter baumannii (strain HDBAB-YK7), 0.625 µg/mL. The results for the MIC against Acinetobacter baumannii (strain HDBAB-YK12), in the data set on Acinetobacter baumannii (strain HDBAB-YK16) and against Acinetobacter baumannii (strain HDBAB_OXA_7) were 2 µg/mL, 8 µg/mL and 4 µg/mL, respectively.
As to `CC1(C)[C@H](NC(=O)/C(=N\O[C@@H](COc2ccc(-c3cn4[n+](c3)CC(OCCCN)C4)cc2)C(=O)O)c2csc(N)n2)C(=O)N1OS(=O)(=O)[O-]` (stereo partly drawn) [Example 3, (3S)-3-((Z)-2-(((1S)-2-(4-(2-(3-aminopropoxy)-2,3-dihydro-1H-pyrazolo[1,2-a]pyrazol-4-ium-6-yl)phenoxy)-1-carboxyethoxy)imino)-2-(2-aminothiazol-4-yl)acetylamino)-2,2-dimethyl-4-oxoazetidin-1-yl Sulfate], the “in vitro antibacterial activity (in words)” value in data set [1] is on record as “excellent antibacterial activity”. Also, the MIC in the data set with Escherichia coli (strain CLB30048, read-out: MIC) is 4 µg/mL; in the data set with Pseudomonas aeruginosa (strain HDBPA-YK9), 16 µg/mL; with Pseudomonas aeruginosa (strain HDBPA-YK15), above 64 µg/mL; against Acinetobacter baumannii (ATCC19606, strain ATCC 19606), 2 µg/mL; in the data set on Acinetobacter baumannii (strain HDBAB-YK4), 2 µg/mL; with Acinetobacter baumannii (strain HDBAB-YK7), 2 µg/mL. The values for the MIC against Acinetobacter baumannii (strain HDBAB-YK12), with Acinetobacter baumannii (strain HDBAB-YK16) and against Acinetobacter baumannii (strain HDBAB_OXA_7) were 2 µg/mL, 16 µg/mL and 8 µg/mL, respectively. Moreover, the Vd in data set [2] (read-out: VSS) worked out at 0.26 L/kg; in data set [2] (read-out: Vd) it was 0.35 L/kg. This compound also gave an AUC(0-inf) in data set [2] of 2310 ng·h/mL. Besides, the AUC(0-t) in data set [2] amounted to 2300 ng·h/mL. The C0 in data set [2] stood at 8650 ng/mL. In data set [2], this compound showed a clearance of 14.5 mL/min/kg. Also, the half-life in data set [2] is 16.8 min.
In the case of `C[n+]1cc(-c2ccc(OC[C@H](O/N=C(\C(=O)N[C@@H]3C(=O)N(OS(=O)(=O)[O-])C3(C)C)c3csc(N)n3)C(=O)O)cc2)ccc1NC(=O)[C@@H](N)CCN` [Example 9], the “in vitro antibacterial activity (in words)” value in data set [1] was “excellent antibacterial activity”. The MIC is 2 µg/mL (≈ 2.67 µM) with Escherichia coli (strain CLB30048, read-out: MIC); 8 µg/mL (≈ 10.7 µM) with Pseudomonas aeruginosa (strain HDBPA-YK9); above 64 µg/mL in the data set on Pseudomonas aeruginosa (strain HDBPA-YK15); 2 µg/mL (≈ 2.67 µM) in the data set on Acinetobacter baumannii (ATCC19606, strain ATCC 19606); 2 µg/mL (≈ 2.67 µM) against Acinetobacter baumannii (strain HDBAB-YK4); 0.25 µg/mL (≈ 0.333 µM) in the data set on Acinetobacter baumannii (strain HDBAB-YK7). For the same compound, the MIC against Acinetobacter baumannii (strain HDBAB-YK12) came to 1 µg/mL (≈ 1.33 µM); against Acinetobacter baumannii (strain HDBAB-YK16), 8 µg/mL (≈ 10.7 µM); in the data set on Acinetobacter baumannii (strain HDBAB_OXA_7), 8 µg/mL (≈ 10.7 µM).
